Laboratory results taken from patent US20250186421A1, “METHODS OF TREATING INFLAMMATORY AND/OR ALLERGIC DISORDERS WITH NORKETOTIFEN” (Bridge Pharma, Inc., priority 2025, published 2025).
Like-named read-outs stand apart in the source and are kept apart here. Marks after values point to notes of the source that are not given here.

Key:
[1] = dog, in vivo
Method: In the Phase 2 study described herein, doses of 4 mg (maintenance) and 8 mg (loading) were used, with very good effects and with no toxicity. The margin of safety (MOS) was calculated by dividing animal: human doses in mg/kg, or dividing animal systemic exposure (AUC) at no adverse effect level (NOAEL) (a 28-day dog study), with human systemic exposure AUC (from human Phase 1 study), or by dividing animal: to human dose expressed in m2 (body surface area—BSA), or by calculating HED (human equivalent dose).

[2] = Fed and fasted oral administration of norketotifen to dogs (food effect PK); format: in vivo; conditions: 4 mg/kg oral; for AUC(0-inf) / Cmax: dog, plasma, po, 4 mg/kg
Method: Norketotifen was administered to dogs with and without food. For fed animals, canned food (one can (374 g) of Lamb Ground Dinner with Chicken & Rice per dog was weighed then offered for a period of 30 min prior to dosing at 4 mg/kg. After dosing, dry food (25% protein) was offered. For fasted animals, dogs were fasted overnight and until 4 h post dose and then offered dry food. The results are given in Table 2.

[3] = PK parameters in plasma and skin of dogs after 28 days of oral dosing; format: in vivo; conditions: for AUC(0-inf): N=5; for MRT / half-life: dog, po
Description: However, for the treatment of the dermal and pulmonary disorders described herein for treatment efficacy, the dermal/pulmonary exposure are more important than systemic exposure, that is, efficacy depends on the skin/pulmonary AUC/Cmax, which are considered to be sites of action for these conditions. The pharmacokinetic parameters in skin and plasma after oral dosing of norketotifen to dogs (N=5) are shown below.

atopic dermatitis [4] = assay: Phase 2a study of oral norketotifen in atopic dermatitis; format: in vivo, human
Method: The efficacy and safety of norketotifen orally administered to human subjects over a 28 day period were determined in a Phase 2 study. Norketotifen efficacy was compared to the clinical data in the prescribing information for Eucrisa® by dermal application; and compared to the clinical data in the prescribing information (product monograph) for Dupixent® by subcutaneous administration. In the Phase 2a study, 8 subjects were administered Placebo and 16 subjects were administered norketotifen. Oral norketotifen was administered at 4 mg BID (twice per day) for 4 days, followed by 4 mg QD (once per day). The duration of the study was 4 weeks. The parameters determined were: IGA score, Investigator's Global Assessment scale. The scale is as follows: • 0=clear—No inflammatory signs of atopic dermatitis (no erythema, no induration/papulation, no lichenification, no oozing/crusting). Post-inflammatory hyperpigmentation and/or hypopigmentation may be present. • 1=almost clear—Barely perceptible erythema, barely perceptible induration/papulation, and/or minimal lichenification. No oozing or crusting. • 2=mild—Slight but definite erythema (pink), slight but definite induration/papulation, and/or slight but definite lichenification. No oozing or crusting. • 3=moderate—Clearly perceptible erythema (dull red), clearly perceptible induration/papulation, and/or clearly perceptible lichenification. Oozing and crusting may be present. • 4=severe—Marked erythema (deep or bright red), marked induration/papulation, and/or marked lichenification. Disease is widespread in extent. Oozing or crusting may be present. In the IGA assessment, a responder was identified as a subject with IGA 0 or 1 (clear or almost clear) after treatment. A partial responder was defined as having an IGA score>1, but less than the initial score recorded on Day 1. A non-responder is a subject in which the initial IGA score was identical to the IGA score at the end of treatment (i.e. no change in score numbers). […] In Table 4, the results for norketotifen were compared to the results from the Dupixent® prescribing information.

[5] = Accumulation of norketotifen in skin after oral administration; format: in vivo; conditions: read-out: Terminal half-life (t1/2e)
Description: As used herein, the term biophase refers to the site(s) where a drug expresses its therapeutic activity. […] Thus, norketotifen can advantageously be used to treat dermal inflammatory and/or allergic diseases.

[6] = Distribution of norketotifen to the lungs after oral administration; format: in vivo; conditions: lung / plasma, read-out: Lung concentration relative to plasma concentration
Description: Norketotifen, after oral administration, is rapidly absorbed and is also preferentially distributed to the lungs, where the concentration of RS-norketotifen can reach concentrations that may be 100 times higher than the plasma concentration.

[7] = Phase 1 study, 8 mg/day for 7 days, plasma steady-state; format: in vivo, human; conditions: 8 mg/day for 7 days Phase 1 study
[8] = Incidence of vomiting in dogs administered norketotifen as a function of Cmax and AUC; format: in vivo; conditions: FIGS. 1 and 2
atopic dermatitis [9] = conditions: 16 weeks, 224 subjects, cited from earlier work
[10] = Fast (fasted overnight until 4 h post dose)
[11] = oral 4 mg BID for 4 days, then 4 mg QD for 24 days, 4 weeks, 16 subjects

Molecule: O=C1Cc2ccccc2C(=C2CCNCC2)c2ccsc21 (racemic) [norketotifen]
- Margin of safety (animal: human), Systemic exposure (AUC0-inf.) ([1]; 2 mg): 127-fold
- Margin of safety (animal: human), Systemic exposure (AUC0-inf.) ([1]; 4 mg): 72-fold
- Margin of safety (animal: human), Systemic exposure (AUC0-inf.) ([1]; 16 mg): 19-fold
- Margin of safety (animal: human), Systemic exposure (AUC0-inf.) ([1]; 32 mg): 6-fold
- Margin of safety (animal: human), Systemic exposure (AUC0-inf.) ([1]; 64 mg): 3-fold
- % difference in AUC0-∞, fed vs fasted (reduction in fed animals) [2]: 26%
- AUC(0-inf) [2, 10]: 522 ng·h/mL
- Cmax [2, 10]: 93 ng/mL
- AUC(0-inf) ([2]; Fed): 390 ng·h/mL
- Cmax ([2]; Fed): 58 ng/mL
- AUC(0-inf) ([3]; dog plasma, after 28 days of oral dosing): 4520 ng·h/mL
- AUC(0-inf) ([3]; dog skin, after 28 days of oral dosing): 46100 ng·h/mL
- MRT ([3]; plasma, dog plasma, after 28 days of oral dosing, read-out: MRT (mean residence time)): 17.5 h
- half-life ([3]; plasma, dog plasma, after 28 days of oral dosing, read-out: t ½(e) (converted)): 38.3 h
- MRT ([3]; skin, dog skin, Phase 2 = 14 day post dosing period, read-out: MRT (phase 2)): 159 h
- half-life ([3]; skin, dog skin, Phase 2 = 14 day post dosing period, read-out: t ½(e) (phase 2) (converted)): 160 h
- MRT ([3]; skin, dog skin, after 28 days of oral dosing, read-out: MRT (mean residence time)): 86.5 h
- half-life ([3]; skin, dog skin, after 28 days of oral dosing, read-out: t ½(e) (converted)): 25.4 h
- Safety/tolerability in the safety population (atopic dermatitis [4]; 28 days oral treatment, adverse event in only one patient, resolved completely): well-tolerated, with no reported instances of serious adverse events or treatment-related adverse events
- Toxicity at Phase 2 doses (atopic dermatitis [4]; doses of 4 mg (maintenance) and 8 mg (loading)): no toxicity
- Nausea or vomiting when dosed on a full stomach (atopic dermatitis [4]; human subjects, with food, up to a dose of 16 mg): no nausea or vomiting was noted
- % reduction of affected BSA (Baseline to Day 29) (atopic dermatitis [4]; oral 4 mg BID for 4 days, then 4 mg QD for 24 days): −63.3%^
- IGA scores >1, but less than the initial scores on Day 1 (partial responders) (atopic dermatitis [4]; [11]): 50%
- Non responders at all (atopic dermatitis [4]; [11]): 6.1%
- IGA scores ≤1, percent responders (atopic dermatitis [4]; oral 4 mg BID for 4 days, then 4 mg QD for 24 days, 4 weeks, 16 subjects, p = 0.0095 / 0.0031 vs Placebo (Fisher's exact test)): 43.89% ^b
- Pruritus, score 0, percentage improvement for NK group (atopic dermatitis [4]; pruritus severity scale 0-3, 4 weeks, p = 0.016 vs Placebo): 62.5%^c
- half-life [5]: 144 to 168 h
- Kp [6]: ~100
- Time to plasma steady-state [7]: ≤ 4 days
- Incidence of vomiting vs systemic Cmax and AUC [8]: incidence of vomiting increases as both systemic Cmax and AUC increase

Molecule: Dupilumab: recombinant human IgG4 monoclonal antibody binding IL-4Rα, inhibits IL-4 and IL-13 signaling; subcutaneous injection
- IGA scores ≤1, percent responders (atopic dermatitis [9]; 300 mg Q2W subcutaneous): 37.9%
- NRS ≥4 score improvement, percentage response for dupilumab group (atopic dermatitis [9]; pruritus NRS 0-10, 300 mg Q2W): 40.8%
